Earlier results as cited in patent publication US20230338587A1, “METHOD OF TREATING PSMA-EXPRESSING CANCERS” (ADVANCED ACCELERATOR APPLICATIONS INTERNATIONAL SA, priority 2020, published 2023).

XOMA 089: fully human monoclonal antibody that specifically binds and neutralizes TGF-beta 1 and 2 ligands
cross-reactivity with rodent TGF-β (rodent TGF-β): cross-reacts | cross-reactivity with cynomolgus monkey TGF-β (cynomolgus monkey TGF-β): cross-reacts
